Converted amounts (≈) assume the structure as drawn.
Tests used:
Staphylococcus aureus [1] = assay: Antimicrobial activity against Staphylococcus aureus NCTC 4163 after 18 hrs by twofold serial broth dilution method; format: functional; conditions: NCTC 4163, 18 h
[2] = tested on: Staphylococcus epidermidis; assay: Bactericidal activity against methicillin-resistant Staphylococcus epidermidis isolate 404/10 after 24 hrs; format: functional; conditions: isolate 404/10, 24 h, read-out: MBC99.9
[3] = tested on: Staphylococcus epidermidis; assay: Antimicrobial activity against methicillin-resistant Staphylococcus epidermidis isolate 407/10 after 18 hrs by twofold serial broth dilution method; format: functional; conditions: isolate 407/10, 18 h
[4] = tested on: Staphylococcus epidermidis; assay: Bactericidal activity against methicillin-resistant Staphylococcus epidermidis isolate 403/10 after 24 hrs; format: functional; conditions: isolate 403/10, 24 h, read-out: MBC99.9
[5] = tested on: Staphylococcus epidermidis; assay: Antimicrobial activity against Staphylococcus epidermidis ATCC 12228 after 18 hrs by twofold serial broth dilution method; format: functional; conditions: ATCC 12228, 18 h
Bacillus subtilis [6] = assay: Genotoxicity in rec-negative Bacillus subtilis M45 at 2 ug/9 mm disc after 24 hrs by disc diffusion method; format: toxicity, organism-based
Escherichia coli [7] = assay: Bactericidal activity against Escherichia coli NCTC 8196 after 24 hrs; format: functional; conditions: NCTC 8196, 24 h, read-out: MBC99.9
[8] = tested on: Staphylococcus epidermidis; assay: Bactericidal activity against methicillin-resistant Staphylococcus epidermidis isolate 405/10 after 24 hrs; format: functional; conditions: isolate 405/10, 24 h, read-out: MBC99.9
Escherichia coli [9] = assay: Bactericidal activity against Escherichia coli ATCC 25922 after 24 hrs; format: functional; conditions: ATCC 25922, 24 h, read-out: MBC99.9
[10] = tested on: Staphylococcus epidermidis; assay: Antimicrobial activity against methicillin-resistant Staphylococcus epidermidis isolate 403/10 after 18 hrs by twofold serial broth dilution method; format: functional; conditions: isolate 403/10, 18 h
[11] = tested on: Staphylococcus epidermidis; assay: Bactericidal activity against methicillin-resistant Staphylococcus epidermidis isolate 409/10 after 24 hrs; format: functional; conditions: isolate 409/10, 24 h, read-out: MBC99.9
[12] = tested on: Staphylococcus epidermidis; assay: Antimicrobial activity against methicillin-resistant Staphylococcus epidermidis isolate 461/11 after 18 hrs by twofold serial broth dilution method; format: functional; conditions: isolate 461/11, 18 h
[13] = tested on: Staphylococcus epidermidis; assay: Antimicrobial activity against Staphylococcus epidermidis ATCC 35984 after 18 hrs by twofold serial broth dilution method; format: functional; conditions: ATCC 35984, 18 h
Staphylococcus aureus [14] = assay: Bactericidal activity against Staphylococcus aureus ATCC 6538 after 24 hrs; format: functional; conditions: ATCC 6538, 24 h, read-out: MBC99.9
[15] = tested on: Staphylococcus epidermidis; assay: Bactericidal activity against methicillin-resistant Staphylococcus epidermidis isolate 461/11 after 24 hrs; format: functional; conditions: isolate 461/11, 24 h, read-out: MBC99.9
Staphylococcus aureus [16] = assay: Bactericidal activity against Staphylococcus aureus […] after 24 hrs; format: functional; conditions: read-out: MBC99.9
[17] = tested on: Staphylococcus epidermidis; assay: Antimicrobial activity against methicillin-resistant Staphylococcus epidermidis isolate 460/11 after 18 hrs by twofold serial broth dilution method; format: functional; conditions: isolate 460/11, 18 h
[18] = tested on: Staphylococcus epidermidis; assay: Antimicrobial activity against methicillin-resistant Staphylococcus epidermidis isolate 409/10 after 18 hrs by twofold serial broth dilution method; format: functional; conditions: isolate 409/10, 18 h
Escherichia coli [19] = assay: Antimicrobial activity against Escherichia coli ATCC 25922 after 18 hrs by twofold serial broth dilution method; format: functional; conditions: ATCC 25922, 18 h
[20] = tested on: Staphylococcus epidermidis; assay: Antimicrobial activity against methicillin-resistant Staphylococcus epidermidis isolate 470/11 after 18 hrs by twofold serial broth dilution method; format: functional; conditions: isolate 470/11, 18 h
Bacillus subtilis [21] = assay: Genotoxicity in rec-positive Bacillus subtilis H17 at 2 ug/9 mm disc after 24 hrs by disc diffusion method; format: toxicity, organism-based
Pseudomonas aeruginosa [22] = assay: Antimicrobial activity against Pseudomonas aeruginosa ATCC 15442 after 18 hrs by twofold serial broth dilution method; format: functional; conditions: ATCC 15442, 18 h
Escherichia coli [23] = assay: Bactericidal activity against Escherichia coli ATCC 10538 after 24 hrs; format: functional; conditions: ATCC 10538, 24 h, read-out: MBC99.9
Staphylococcus aureus [24] = assay: Bactericidal activity against Staphylococcus aureus ATCC 25923 after 24 hrs; format: functional; conditions: ATCC 25923, 24 h, read-out: MBC99.9
[25] = tested on: Staphylococcus epidermidis; assay: Bactericidal activity against methicillin-resistant Staphylococcus epidermidis isolate 455/11 after 24 hrs; format: functional; conditions: isolate 455/11, 24 h, read-out: MBC99.9
Pseudomonas aeruginosa [26] = assay: Bactericidal activity against Pseudomonas aeruginosa ATCC 27853 after 24 hrs; format: functional; conditions: ATCC 27853, 24 h, read-out: MBC99.9
[27] = tested on: Staphylococcus epidermidis; assay: Bactericidal activity against methicillin-resistant Staphylococcus epidermidis isolate 459/11 after 24 hrs; format: functional; conditions: isolate 459/11, 24 h, read-out: MBC99.9
[28] = tested on: Staphylococcus epidermidis; assay: Antimicrobial activity against methicillin-resistant Staphylococcus epidermidis isolate 404/10 after 18 hrs by twofold serial broth dilution method; format: functional; conditions: isolate 404/10, 18 h
[29] = tested on: Staphylococcus epidermidis; assay: Bactericidal activity against methicillin-resistant Staphylococcus epidermidis isolate 460/11 after 24 hrs; format: functional; conditions: isolate 460/11, 24 h, read-out: MBC99.9
Pseudomonas aeruginosa [30] = assay: Bactericidal activity against Pseudomonas aeruginosa NCTC 6749 after 24 hrs; format: functional; conditions: NCTC 6749, 24 h, read-out: MBC99.9
Escherichia coli [31] = assay: Antimicrobial activity against Escherichia coli ATCC 10538 after 18 hrs by twofold serial broth dilution method; format: functional; conditions: ATCC 10538, 18 h
Pseudomonas aeruginosa [32] = assay: Antimicrobial activity against Pseudomonas aeruginosa ATCC 27853 after 18 hrs by twofold serial broth dilution method; format: functional; conditions: ATCC 27853, 18 h
[33] = tested on: Staphylococcus epidermidis; assay: Antimicrobial activity against methicillin-resistant Staphylococcus epidermidis isolate 469/11 after 18 hrs by twofold serial broth dilution method; format: functional; conditions: isolate 469/11, 18 h
[34] = tested on: Staphylococcus epidermidis; assay: Antimicrobial activity against methicillin-resistant Staphylococcus epidermidis isolate 458/11 after 18 hrs by twofold serial broth dilution method; format: functional; conditions: isolate 458/11, 18 h
[35] = tested on: Staphylococcus epidermidis; assay: Bactericidal activity against methicillin-resistant Staphylococcus epidermidis isolate 424/10 after 24 hrs; format: functional; conditions: isolate 424/10, 24 h, read-out: MBC99.9
[36] = tested on: Staphylococcus epidermidis; assay: Bactericidal activity against methicillin-resistant Staphylococcus epidermidis isolate 422/10 after 24 hrs; format: functional; conditions: isolate 422/10, 24 h, read-out: MBC99.9
[37] = tested on: Staphylococcus epidermidis; assay: Bactericidal activity against methicillin-resistant Staphylococcus epidermidis isolate 457/11 after 24 hrs; format: functional; conditions: isolate 457/11, 24 h, read-out: MBC99.9
Staphylococcus aureus [38] = assay: Bactericidal activity against Staphylococcus aureus NCTC 4163 after 24 hrs; format: functional; conditions: NCTC 4163, 24 h, read-out: MBC99.9
Bacillus anthracis = assay: Antimicrobial activity against Bacillus anthracis 34F2 after 18 hrs by twofold serial broth dilution method; format: functional; conditions: 34F2, 18 h
[39] = tested on: Staphylococcus epidermidis; assay: Bactericidal activity against methicillin-resistant Staphylococcus epidermidis isolate 407/10 after 24 hrs; format: functional; conditions: isolate 407/10, 24 h, read-out: MBC99.9
[40] = tested on: Staphylococcus epidermidis; assay: Antimicrobial activity against methicillin-resistant Staphylococcus epidermidis isolate 459/11 after 18 hrs by twofold serial broth dilution method; format: functional; conditions: isolate 459/11, 18 h
[41] = tested on: Staphylococcus epidermidis; assay: Bactericidal activity against Staphylococcus epidermidis ATCC 12228 after 24 hrs; format: functional; conditions: ATCC 12228, 24 h, read-out: MBC99.9
[42] = tested on: Staphylococcus epidermidis; assay: Bactericidal activity against methicillin-resistant Staphylococcus epidermidis isolate 454/11 after 24 hrs; format: functional; conditions: isolate 454/11, 24 h, read-out: MBC99.9

CCCCN(CCCC)C(=O)[C@H](CC)[C@H]1CC[C@H](C)[C@H]([C@@H](C)[C@H](O)[C@H](C)C(=O)[C@H](CC)[C@H]2O[C@]3(C=C[C@@H](O)[C@]4(CC[C@@](C)([C@H]5CC[C@](O)(CC)[C@H](C)O5)O4)O3)[C@H](C)C[C@@H]2C)O1
MIC (Staphylococcus aureus [1]): 8 µg/mL (≈ 9.28 µM)
MBC [2]: > 256 µg/mL
MIC [3]: 8 µg/mL (≈ 9.28 µM)
MBC [4]: 256 µg/mL (≈ 297 µM)
MIC [5]: 8 µg/mL (≈ 9.28 µM)
diameter of the inhibition zone (DIZ) (Bacillus subtilis [6]): 30 mm
MBC (Escherichia coli [7]): > 256 µg/mL
MBC [8]: 128 µg/mL (≈ 148 µM)
MBC (Escherichia coli [9]): > 256 µg/mL
MIC [10]: 8 µg/mL (≈ 9.28 µM)
MBC [11]: > 256 µg/mL
MIC [12]: 8 µg/mL (≈ 9.28 µM)
MIC [13]: 8 µg/mL (≈ 9.28 µM)
MBC (Staphylococcus aureus [14]): 256 µg/mL (≈ 297 µM)
MBC [15]: > 256 µg/mL
MBC (Staphylococcus aureus [16]): > 256 µg/mL
MIC [17]: 8 µg/mL (≈ 9.28 µM)
MIC [18]: 16 µg/mL (≈ 18.6 µM)
MIC (Escherichia coli [19]): > 256 µg/mL
MIC [20]: 8 µg/mL (≈ 9.28 µM)
diameter of the inhibition zone (DIZ) (Bacillus subtilis [21]): 29 mm
MIC (Pseudomonas aeruginosa [22]): > 256 µg/mL
MBC (Escherichia coli [23]): > 256 µg/mL
MBC (Staphylococcus aureus [24]): 256 µg/mL (≈ 297 µM)
MBC [25]: 256 µg/mL (≈ 297 µM)
MBC (Pseudomonas aeruginosa [26]): > 256 µg/mL
MBC [27]: 256 µg/mL (≈ 297 µM)
MIC [28]: 8 µg/mL (≈ 9.28 µM)
MBC [29]: > 256 µg/mL
MBC (Pseudomonas aeruginosa [30]): > 256 µg/mL
MIC (Escherichia coli [31]): > 256 µg/mL
MIC (Pseudomonas aeruginosa [32]): > 256 µg/mL
MIC [33]: 8 µg/mL (≈ 9.28 µM)
MIC [34]: 4 µg/mL (≈ 4.64 µM)
MBC [35]: 256 µg/mL (≈ 297 µM)
MBC [36]: 256 µg/mL (≈ 297 µM)
MBC [37]: 256 µg/mL (≈ 297 µM)
MBC (Staphylococcus aureus [38]): > 256 µg/mL
MIC (Bacillus anthracis): 64 µg/mL (≈ 74.2 µM)
MBC [39]: 256 µg/mL (≈ 297 µM)
MIC [40]: 4 µg/mL (≈ 4.64 µM)
MBC [41]: > 256 µg/mL
MBC [42]: 128 µg/mL (≈ 148 µM)

CC[C@@H](C(=O)[C@@H](C)[C@@H](O)[C@H](C)[C@@H]1O[C@@H]([C@@H](CC)C(=O)N(Cc2ccccc2)Cc2ccccc2)CC[C@@H]1C)[C@H]1O[C@]2(C=C[C@@H](O)[C@]3(CC[C@@](C)([C@H]4CC[C@](O)(CC)[C@H](C)O4)O3)O2)[C@H](C)C[C@@H]1C
MIC (Staphylococcus aureus [1]): 16 µg/mL (≈ 17.2 µM)
MBC [2]: > 256 µg/mL
MIC [3]: 16 µg/mL (≈ 17.2 µM)
MBC [4]: > 256 µg/mL
MIC [5]: 16 µg/mL (≈ 17.2 µM)
diameter of the inhibition zone (DIZ) (Bacillus subtilis [6]): 20 mm
MBC (Escherichia coli [7]): > 256 µg/mL
MBC [8]: 128 µg/mL (≈ 138 µM)
MBC (Escherichia coli [9]): > 256 µg/mL
MIC [10]: 16 µg/mL (≈ 17.2 µM)
MBC [11]: 256 µg/mL (≈ 275 µM)
MIC [12]: 32 µg/mL (≈ 34.4 µM)
MIC [13]: 8 µg/mL (≈ 8.6 µM)
MBC (Staphylococcus aureus [14]): 256 µg/mL (≈ 275 µM)
MBC [15]: > 256 µg/mL
MBC (Staphylococcus aureus [16]): > 256 µg/mL
MIC [17]: 32 µg/mL (≈ 34.4 µM)
MIC [18]: 16 µg/mL (≈ 17.2 µM)
MIC (Escherichia coli [19]): > 256 µg/mL
MIC [20]: 32 µg/mL (≈ 34.4 µM)
diameter of the inhibition zone (DIZ) (Bacillus subtilis [21]): 21 mm
MIC (Pseudomonas aeruginosa [22]): > 256 µg/mL
MBC (Escherichia coli [23]): > 256 µg/mL
MBC (Staphylococcus aureus [24]): 128 µg/mL (≈ 138 µM)
MBC [25]: 256 µg/mL (≈ 275 µM)
MBC (Pseudomonas aeruginosa [26]): > 256 µg/mL
MBC [27]: 256 µg/mL (≈ 275 µM)
MIC [28]: 32 µg/mL (≈ 34.4 µM)
MBC [29]: > 256 µg/mL
MBC (Pseudomonas aeruginosa [30]): > 256 µg/mL
MIC (Escherichia coli [31]): > 256 µg/mL
MIC (Pseudomonas aeruginosa [32]): > 256 µg/mL
MIC [33]: 32 µg/mL (≈ 34.4 µM)
MIC [34]: 16 µg/mL (≈ 17.2 µM)
MBC [35]: 256 µg/mL (≈ 275 µM)
MBC [36]: 256 µg/mL (≈ 275 µM)
MBC [37]: 256 µg/mL (≈ 275 µM)
MBC (Staphylococcus aureus [38]): 256 µg/mL (≈ 275 µM)
MIC (Bacillus anthracis): 32 µg/mL (≈ 34.4 µM)
MBC [39]: 256 µg/mL (≈ 275 µM)
MIC [40]: 16 µg/mL (≈ 17.2 µM)
MBC [41]: 256 µg/mL (≈ 275 µM)
MBC [42]: 128 µg/mL (≈ 138 µM)

Source: ChEMBL document CHEMBL3400015, “Tertiary amides of Salinomycin: A new group of antibacterial agents against Bacillus anthracis and methicillin-resistant Staphylococcus epidermidis” (Bioorg Med Chem Lett, 2015)
